Reference: patent US12448359B2, “Compounds with immunomodulatory activity and therapeutic uses thereof” (Purdue Research Foundation, priority 2020, dated 2025)

Molecular target: PD-1/PD-L1 interaction (Homo sapiens (Human), UniProt Q9NZQ7)
Assay: PD1/PD-L1 HTRF assay (Cisbio kit), inhibition of PD-1/PD-L1 interaction
Type: binding
Conditions: for IC50 / IC50 value: HTRF, inhibition of PD-1/PD-L1 interaction, 4PL fit; for inhibition to PD-1/PD-L1 interaction (in words): HTRF assay
Method: Briefly, 2 μL of the compound, 4 μL from a 25 nM Tagl-PD-L1 protein solution and 4 μL from a 250 nM Tag2-PD1 protein were added into a Cisbio's HTRF 96-well low volume white plate. Then, the plate was incubated for 15 minutes at room temperature. Next, 10 μL from pre-mixed anti-tag detection reagents (5 μL from 1X anti-Tagl-Eu^3+ and 5 μL from 1X anti-Tag2-XL665) were added and the sealed plate was incubated for 2 hours at room temperature. Finally, the plate sealer was removed, and measurements were taken using a HTRF® compatible reader. This protocol used 12 different concentrations of each compound where the maximum and minimum assay concentrations are 10,000 nM and 0.001 nM respectively.
To calculate ΔF/ΔFmax, first the HTRF ratio is calculated as follows;
A multiplication factor of 10000 factor was used to not deal with decimal values that improves data accuracy during calculation. The AR ratio indicating “specific signal” of the compound disrupting the PD-1/PD-L1 interaction was calculated by subtracting background HTRF ratio (negative DMSO control in our work) from each compound (sample) HTRF ratio as follows; ΔR=HTRF ratio (sample)−HTRF ratio (background)
Next, data normalization was done to minimize variation in values on different days, different plate reader instruments, or if the assay was done by different individuals. The normalization was done with respect to the background HTRF ratio and was calculated as follows;
Finally, the ΔF/ΔFmax ratio was calculated to enable comparison of values between multiple experiments.
[formula] wherein ΔF max is taken as the ΔF of the positive DMSO control in the assay.
The IC50 value for PD-1/PD-L1 inhibition was determined by analyzing the log of the concentration—response curves to fit a sigmoid curve with four-parameter logistic (4PL) regression using the GraphPad Prism Software version 8.3.0 for Windows, GraphPad Software, La Jolla California USA, www.graphpad.com. Following equation defines the regression curve.
[formula] wherein X=Log of concentration, Y=Response ΔF/ΔFmax, Top and Bottom=Plateaus in same units as Y, LogIC50=Same log units as X, HillSlope=Slope factor or Hill Slope, Unitless. Using the above equation, LogIC50, is calculated to obtain the IC50 value for each compound. The HTRF_IC50_Data.xlsx data file with all replicates is provided as a Supporting File for use in GraphPad Prism Software to calculate IC50 values.

Sequence of PD-1/PD-L1 interaction (Q9NZQ7 19-238): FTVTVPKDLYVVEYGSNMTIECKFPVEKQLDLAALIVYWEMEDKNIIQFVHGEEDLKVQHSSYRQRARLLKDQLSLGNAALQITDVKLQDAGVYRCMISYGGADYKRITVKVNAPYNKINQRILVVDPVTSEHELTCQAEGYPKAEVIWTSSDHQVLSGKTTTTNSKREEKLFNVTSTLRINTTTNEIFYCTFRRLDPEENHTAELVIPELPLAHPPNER

SMILES	IC50 [nM]	inhibition to PD-1/PD-L1 interaction (in words)	IC50 value
COc1cc(OCc2cccc(-c3ccc4c(c3)OCCO4)c2C)cc(OC)c1CN[C@H](CO)C(=O)O [Compound 4b]	340	–	–
COc1cc(OCc2cccc(-c3ccccc3)c2C)cc(OC)c1CNC(CC(F)(F)F)c1ccccc1 (stereo not shown) [Compound 4c, N-(2,6-dimethoxy-4-((2-methyl-[1,1′-biphenyl]-3-yl)methoxy)benzyl)-3,3,3-trifluoro-1-phenylpropan-1-amine]	–	no/poor inhibition	no inhibition
C#C[C@]1(O)CC[C@H]2[C@@H]3[C@H](C)CC4=CC(=O)CCC4[C@H]3CC[C@@]21C (stereo partly drawn) [Compound 4d, (7R,8R,9S,13S,14S,17R)-17-ethynyl-17-hydroxy-7,13-dimethyl-1,2,6,7,8,9,10,11,12,13,14,15,16,17-tetradecahydro-3H-cyclopenta[a]phenanthren-3-one]	–	no/poor inhibition	no inhibition
COc1cc(OCc2cccc(-c3ccccc3)c2C)cc(OC)c1CN1CCC[C@H](C(=O)O)C1 [Compound 4e, (S)-1-(2,6-dimethoxy-4-((2-methyl-[1,1′-biphenyl]-3-yl)methoxy)benzyl)piperidine-3-carboxylic acid]	1260	no/poor inhibition	–
